Test results published in ChEMBL document CHEMBL5360641, “4'-Ethynyl-2'-deoxy-2'-β-fluoro-2-fluoroadenosine: A Highly Potent and Orally Available Clinical Candidate for the Treatment of HIV-1 Infection” (J Med Chem, 2023).

Columns and labels:
[1] = Acute toxicity in Sprague-Dawley rat assessed as effect on spleen damage at 500 to 2000 mg/kg, IG measured on day 15; type: organism-based; details: in vivo, po, 360 h, dose 500-2000 mg/kg, time 15 day
[2] = AUC (0 to t) in male Sprague-Dawley rat at 30 mg/kg, IG measured at 24 hrs LC-MS/MS analysis; type: ADME, organism-based; parameters: time 24 hrs, dose 30 mg/kg, route ig; details: in vivo, po
[3] = Half life in Sprague-Dawley rat at 5 mg/kg, iv measured upto 24 hrs by LC-MS/MS analysis; type: ADME, organism-based; details: in vivo
[4] = AUC (0 to t) in female Sprague-Dawley rat at 10 mg/kg, IG measured at 0.5 hrs LC-MS/MS analysis; type: ADME, organism-based; parameters: time 0.5 hrs, dose 10 mg/kg, route ig; details: in vivo, po
[5] = Apparent oral clearance in Sprague-Dawley rat at 10 mg/kg, IG measured upto 24 hrs by LC-MS/MS analysis; type: ADME, organism-based; details: in vivo
[6] = Acute toxicity in Sprague-Dawley rat assessed as effect on lung damage at 500 to 2000 mg/kg, IG measured on day 15; type: organism-based; details: in vivo, po, 360 h, dose 500-2000 mg/kg, time 15 day
[7] = AUC (0 to t) in male Sprague-Dawley rat at 100 mg/kg, IG measured at 24 hrs LC-MS/MS analysis; type: ADME, organism-based; parameters: time 24 hrs, dose 100 mg/kg, route ig; details: in vivo, po
[8] = Toxicity in Sprague-Dawley rat assessed as effect on body weight at 10 to 30 mg/kg, po administered once daily for 4 weeks and measured after 24 hrs post last dose; type: organism-based; details: in vivo, 696 h, dose 10-30 mg/kg
[9] = Half life in Sprague-Dawley rat at 10 mg/kg, IG measured upto 24 hrs by LC-MS/MS analysis; type: ADME, organism-based; details: in vivo, po
[10] = Toxicity in Sprague-Dawley rat assessed as effect on blood biochemistry at 10 to 30 mg/kg, po administered once daily for 4 weeks and measured after 24 hrs post last dose; type: organism-based; details: in vivo, 696 h, dose 10-30 mg/kg
[11] = Apparent oral clearance in Sprague-Dawley rat at 2.5 mg/kg, IG measured upto 24 hrs by LC-MS/MS analysis; type: ADME, organism-based; details: in vivo
[12] = Drug uptake in Beagle dog PBMC cells assessed as ((2R,3R,4S,5R)-5-(6-amino-2-fluoro-9H-purin-9-yl)-2-ethynyl-4-fluoro-3-hydroxytetrahydrofuran-2-yl)methyl tetrahydrogen triphosphate formation at 6 to 12 mg/kg, po measured at 2 to 168 hrs by LC-MS/MS analysis; type: ADME, organism-based, Canis lupus familiaris; details: in vivo, dose lower 6 mg/kg, time lower 2 hrs, dose upper 12 mg/kg, time upper 168 hrs
[13] = system: Human immunodeficiency virus 1; assay: Antiviral activity against HIV1 IIIB infected in human MT4 cells assessed as inhibition of viral replication incubated for 3 to 7 days by MTT analysis; type: functional, organism-based; details: Human immunodeficiency virus 1, IIIB
[14] = Apparent […] clearance in Sprague-Dawley rat at 5 mg/kg, iv measured upto 24 hrs by LC-MS/MS analysis; type: ADME, organism-based; details: in vivo
[15] = system: Human immunodeficiency virus 1; assay: Antiviral activity against HIV1 A17 infected in human C8166 cells assessed as inhibition of viral replication by measuring reduction in p24 antigen level incubated for 3 to 7 days by ELISA analysis; type: functional, organism-based; details: Human immunodeficiency virus 1, A17, C8166
[16] = AUC (0 to t) in female Sprague-Dawley rat at 10 mg/kg, IG measured at 24 hrs LC-MS/MS analysis; type: ADME, organism-based; parameters: time 24 hrs, dose 10 mg/kg, route ig; details: in vivo, po
[17] = Tmax in Sprague-Dawley rat at 5 mg/kg, IG measured upto 24 hrs by LC-MS/MS analysis; type: ADME, organism-based; details: in vivo, po
[18] = Acute toxicity in Sprague-Dawley rat assessed as effect on kidney damage at 500 to 2000 mg/kg, IG measured on day 15; type: organism-based; details: in vivo, po, 360 h, dose 500-2000 mg/kg, time 15 day
[19] = Bioavailability in Sprague-Dawley rat at 10 mg/kg, IG measured upto 24 hrs by LC-MS/MS analysis; type: ADME, organism-based; details: in vivo, po
[20] = Acute toxicity in Sprague-Dawley rat assessed as effect on heart damage at 500 to 2000 mg/kg, IG measured on day 15; type: organism-based; details: in vivo, po, 360 h, dose 500-2000 mg/kg, time 15 day
[21] = Toxicity in po dosed Sprague-Dawley rat assessed as NOAEL administered once daily for 4 weeks and measured after 24 hrs post last dose; type: organism-based; details: in vivo
[22] = AUC (0 to t) in Sprague-Dawley rat at 10 mg/kg, IG measured upto 24 hrs by LC-MS/MS analysis; type: ADME, organism-based; parameters: dose 10 mg/kg, time < 24 hrs, route ig; details: in vivo, po
[23] = Cmax in Sprague-Dawley rat at 5 mg/kg, iv measured upto 24 hrs by LC-MS/MS analysis; type: ADME, organism-based; parameters: time < 24 hrs, dose 5 mg/kg, route iv; details: in vivo
[24] = system: Human immunodeficiency virus 1; assay: Antiviral activity against HIV-1 harboring integrase G140S/Q148H double mutant infected in human TZM-bl cells assessed as inhibition of viral replication incubated for 3 to 7 days by luciferase assay; type: functional, organism-based; details: Human immunodeficiency virus 1, TZM-bl
[25] = Selectivity index, ratio of CC50 for cytotoxicity against HEK293T cells assessed as reduction in cell viability by MTT assay to EC50 for antiviral activity against HIV1 VSV-G pseudotyped virus infected in human HEK293T cells assessed as inhibition of viral growth; type: toxicity, cell-based; details: read-out: Ratio CC50/EC50

C#C[C@]1(CO)O[C@@H](n2cnc3c(N)nc(F)nc32)[C@@H](F)[C@@H]1O
Activity [1]: Non-Toxic | AUC(0-t) at 24 h [2]: 27100 ng·h/mL | half-life [3]: 108 min | AUC(0-t) at 0.5 h [4]: 7020 ng·h/mL | CL/F [5]: 21.2 mL/min/kg | Activity [6]: Non-Toxic | AUC(0-t) at 24 h [7]: 85800 ng·h/mL | Activity [8]: Non-Toxic | half-life [9]: 138 min | Activity [10]: Non-Toxic | CL/F [11]: 24.8 mL/min/kg | Drug metabolism [12]: Metabolite_Detected | EC50 [13]: 1.22 nM | CL/F [14]: 16.4 mL/min/kg | EC50 [15]: 1.53 nM | AUC(0-t) at 24 h [16]: 6800 ng·h/mL | Tmax [17]: 33.6 min | Activity [18]: Non-Toxic | bioavailability [19]: 76.3% | Activity [20]: Non-Toxic | NOAEL at 696 h [21]: 30 mg/kg | AUC(0-t) at 24 h [22]: 8660 ng·h/mL | Cmax [23]: 10200 ng/mL | EC50 [24]: 2.84 nM | selectivity ratio [25]: > 111000
